Patent publication US4740233A, “Substituted 1,2,4-triazolo[1,5-a]-pyrimidine-2-sulfonamides and compositions and methods of controlling undesired vegetation and suppressing the nitrification of ammonium nitrogen in soil” (The Dow Chemical Company, priority 1986, dated 1988)

Key:
[1] = system: nitrification of ammonium nitrogen; experiment: Suppression of nitrification of ammonium nitrogen in soil; conditions: 27° C.
How it was run: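 Value is % NH4-N remaining after a two-week, 27° C incubation of treated soil held at 1/3 bar tension moisture. Nitrate was measured with an ion-selective electrode after extraction with ammonium sulfate solution and 10 min shaking.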

[2] = system: annual sugar beet variety (SLC03); experiment: Plant growth regulator activity, postemergence; format: in vivo; conditions: for minimal effective concentration: Beta vulgaris, post-emergence, 672 h, 4 weeks after spraying, read-out: Bolting Inhibition (postemergence), concentration with observed effect
Text: Using a regular biennial variety, even a bolting-susceptible variety would require a cold treatment of around 10-16 weeks plus a hormone treatement in conjunction with specific light intensities. Thus, for a screening organism, we selected one which would consistently produce bolting on a regular schedule. The screen is run with an annual sugar beet variety (SLC03) provided by Dr. Richard J. Hecker, Fort Collins, Colo. This variety is an inbred which bolts in the 6- to 8-leaf stage without any need for vernalization. This allows the screen to be run entirely in the greenhouse with all 110 chemical compounds tested on one tray. The sugarbeets are grown in 3×3 inch square pots in a greenhouse sandy loam potting mix. The sugarbeets are sprayed with test compounds when they are 2 to 3 weeks old (2 true leaves). The compounds are dissolved in acetone and diluted with water containing Tween 20 as a wetting agent. The concentration of acetone in the final spray is 20% and the concentration of Tween 20 is 0.05 percent. The plants are examined for the appearance of a bolt 4 weeks after spraying.

soybean [3] = experiment: Postemergent control of plant species; format: in vivo, Glycine max.; conditions: Glycine max, post-emergence, 336 h, read-out: percent postemergent control
How it was run: (§1)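 Spray emulsion: acetone stock at twice final concentration plus equal volume water with 0.1% wetting agent, applied to separated greenhouse beds at 2-4 leaf stage. Assessed at ~two weeks; score reflects growth reduction compared with untreated plants.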

velvetleaf [4] = experiment: Postemergent control of plant species; format: in vivo, Abutilon theophrasti; conditions: Abutilon theophrasti, post-emergence, 336 h, read-out: percent postemergent control
How it was run: as §1

pigweed = experiment: Postemergent control of plant species; format: in vivo, Amaranthus spp.; conditions: Amaranthus retroflexus, post-emergence, 336 h, read-out: percent postemergent control
How it was run: as §1

sorghum = experiment: Postemergent control of plant species; format: in vivo, Sorghum vulgare; conditions: Sorghum, post-emergence, 336 h, read-out: percent postemergent control
How it was run: as §1

yellow foxtail [5] = experiment: Postemergent control of plant species; format: in vivo, Setaria lutescens; conditions: Setaria, post-emergence, 336 h, read-out: percent postemergent control
How it was run: as §1

rape [6] = experiment: Postemergent control of plant species; format: in vivo, Brassica napus; conditions: Brassica napus, post-emergence, 336 h, read-out: percent postemergent control
How it was run: as §1

rice [7] = experiment: Postemergent control of plant species; format: in vivo, Oryza sativa; conditions: Oryza sativa, post-emergence, 336 h, read-out: percent postemergent control
How it was run: as §1

corn [8] = experiment: Postemergent control of plant species; format: in vivo, Zea mays; conditions: Zea mays, post-emergence, 336 h, read-out: percent postemergent control
How it was run: as §1

sugar beet [9] = experiment: Postemergent control of plant species; format: in vivo, Beta saccharifera; conditions: Beta vulgaris, post-emergence, 336 h, read-out: percent postemergent control
How it was run: as §1

wild oats [10] = experiment: Postemergent control of plant species; format: in vivo, Avena fatua; conditions: Avena fatua, post-emergence, 336 h, read-out: percent postemergent control
How it was run: as §1

cotton [11] = experiment: Postemergent control of plant species; format: in vivo, Gossypium spp.; conditions: Gossypium hirsutum, post-emergence, 336 h, read-out: percent postemergent control
How it was run: as §1

wheat [12] = experiment: Postemergent control of plant species; format: in vivo, Triticum aestivum; conditions: Triticum aestivum, post-emergence, 336 h, read-out: percent postemergent control
How it was run: as §1

barnyardgrass [13] = experiment: Postemergent control of plant species; format: in vivo, Echinochloa crusgalli; conditions: Echinochloa crus-galli, post-emergence, 336 h, read-out: percent postemergent control
How it was run: as §1

yellow nutsedge [14] = experiment: Postemergent control of plant species; format: in vivo, Cyperus esculentus; conditions: Cyperus, post-emergence, 336 h, read-out: percent postemergent control
How it was run: as §1

jimsonweed [15] = experiment: Postemergent control of plant species; format: in vivo, Datura stramonium; conditions: Datura stramonium, post-emergence, 336 h, read-out: percent postemergent control
How it was run: as §1

crabgrass = experiment: Postemergent control of plant species; format: in vivo, Digitaria spp.; conditions: Digitaria sanguinalis, post-emergence, 336 h, read-out: percent postemergent control
How it was run: as §1

annual morning glory [16] = experiment: Postemergent control of plant species; format: in vivo, Ipomoea spp.; conditions: Ipomoea, post-emergence, 336 h, read-out: percent postemergent control
How it was run: as §1

johnson grass [17] = experiment: Postemergent control of plant species; format: in vivo, Sorghum halepense; conditions: Sorghum halepense, post-emergence, 336 h, read-out: percent postemergent control
How it was run: as §1

soybean [18] = experiment: Preemergent control of plant species; format: in vivo, Glycine max.; conditions: Glycine max, pre-emergence, 336 h; 0.25 lb/acre; read-out: percent preemergent control
How it was run: (§2)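 Test compositions were applied evenly to the surface of freshly seeded soil beds and kept under greenhouse conditions for two weeks. Percent control reflects growth reduction compared with water-treated beds of the same species.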

jimsonweed [19] = experiment: Preemergent control of plant species; format: in vivo, Datura stramonium; conditions: Datura stramonium, pre-emergence, 336 h; 0.25 lb/acre; read-out: percent preemergent control
How it was run: as §2

cotton [20] = experiment: Preemergent control of plant species; format: in vivo, Gossypium spp.; conditions: Gossypium hirsutum, pre-emergence, 336 h; 0.25 lb/acre; read-out: percent preemergent control
How it was run: as §2

velvetleaf [21] = experiment: Preemergent control of plant species; format: in vivo, Abutilon theophrasti; conditions: Abutilon theophrasti, pre-emergence, 336 h; 0.25 lb/acre; read-out: percent preemergent control
How it was run: as §2

wild oats [22] = experiment: Preemergent control of plant species; format: in vivo; conditions: Avena fatua, pre-emergence, 336 h; 0.25 lb/acre; read-out: percent preemergent control
How it was run: as §2

yellow nutsedge [23] = experiment: Preemergent control of plant species; format: in vivo, Cyperus esculentus; conditions: Cyperus, pre-emergence, 336 h; 0.25 lb/acre; read-out: percent preemergent control
How it was run: as §2

corn [24] = experiment: Preemergent control of plant species; format: in vivo, Zea mays; conditions: Zea mays, pre-emergence, 336 h; 0.25 lb/acre; read-out: percent preemergent control
How it was run: as §2

rape [25] = experiment: Preemergent control of plant species; format: in vivo, Brassica napus; conditions: Brassica napus, pre-emergence, 336 h; 0.25 lb/acre; read-out: percent preemergent control
How it was run: as §2

barnyardgrass [26] = experiment: Preemergent control of plant species; format: in vivo, Echinochloa crusgalli; conditions: Echinochloa crus-galli, pre-emergence, 336 h; 0.25 lb/acre; read-out: percent preemergent control
How it was run: as §2

yellow foxtail [27] = experiment: Preemergent control of plant species; format: in vivo, Setaria lutescens; conditions: Setaria, pre-emergence, 336 h; 0.25 lb/acre; read-out: percent preemergent control
How it was run: as §2

annual morning glory [28] = experiment: Preemergent control of plant species; format: in vivo, Ipomoea spp.; conditions: Ipomoea, pre-emergence, 336 h; 0.25 lb/acre; read-out: percent preemergent control
How it was run: as §2

rice [29] = experiment: Preemergent control of plant species; format: in vivo, Oryza sativa; conditions: Oryza sativa, pre-emergence, 336 h; 0.25 lb/acre; read-out: percent preemergent control
How it was run: as §2

wheat [30] = experiment: Preemergent control of plant species; format: in vivo, Triticum aestivum; conditions: Triticum aestivum, pre-emergence, 336 h; 0.25 lb/acre; read-out: percent preemergent control
How it was run: as §2

johnson grass [31] = experiment: Preemergent control of plant species; format: in vivo, Sorghum halepense; conditions: Sorghum halepense, pre-emergence, 336 h; 0.25 lb/acre; read-out: percent preemergent control
How it was run: as §2

sugar beet [32] = experiment: Preemergent control of plant species; format: in vivo, Beta saccharifera; conditions: Beta vulgaris, pre-emergence, 336 h; 0.25 lb/acre; read-out: percent preemergent control
How it was run: as §2

`Cc1cc(C)n2nc(S(=O)(=O)Nc3c(F)cccc3Oc3ccc(C(F)(F)F)cc3Cl)nc2n1` [Compound 98] was tested, and the “% NH4-N Remaining After 2 Weeks Incubation” value ([1]; 0.06 ppm) was 0%, the “% NH4-N Remaining After 2 Weeks Incubation” value ([1]; 0.25 ppm) was 25% and the “% NH4-N Remaining After 2 Weeks Incubation” value ([1]; 1 ppm) was 0%. For the same compound, the “% NH4-N Remaining After 2 Weeks Incubation” value ([1]; 4 ppm) was 37% and the minimal effective concentration [2] was 400 µg/mL.
Compound `COC(=O)c1cccc(C)c1N(Cc1ccccc1)S(=O)(=O)c1nc2nc(C)cc(C)n2n1` [Compound 267] has a plant injury at 500 ppm (soybean [3]) of 45%, a pest or weed control at 500 ppm (velvetleaf [4]) of 95% and a pest or weed control at 500 ppm (pigweed) of 60%. For the same compound, the plant injury at 500 ppm (sorghum) was 65%, the pest or weed control at 500 ppm (yellow foxtail [5]) was 70% and the plant injury at 500 ppm (rape [6]) was 80%. The plant injury at 500 ppm (rice [7]) was 40%, the plant injury at 500 ppm (corn [8]) was 0% and the plant injury at 500 ppm (sugar beet [9]) was 80%. For the same compound, the pest or weed control at 500 ppm (wild oats [10]) was 0%, the “% NH4-N Remaining After 2 Weeks Incubation” value ([1]; 0.06 ppm) was 0% and the “% NH4-N Remaining After 2 Weeks Incubation” value ([1]; 0.25 ppm) was 0%. For the same compound, the “% NH4-N Remaining After 2 Weeks Incubation” value ([1]; 1 ppm) was 0%, the “% NH4-N Remaining After 2 Weeks Incubation” value ([1]; 4 ppm) was 11% and the plant injury at 500 ppm (cotton [11]) was 0%. For the same compound, the plant injury at 500 ppm (wheat [12]) was 0%, the “observed effect (postemergence)” value ([2]; 400 ppm) was “stunting” and the minimal effective concentration [2] was 400 µg/mL. For the same compound, the pest or weed control at 500 ppm (barnyardgrass [13]) was 35%, the pest or weed control at 500 ppm (yellow nutsedge [14]) was 40% and the pest or weed control at 500 ppm (jimsonweed [15]) was 80%. For the same compound, the pest or weed control at 500 ppm (crabgrass) was 90%, the pest or weed control at 500 ppm (annual morning glory [16]) was 90% and the pest or weed control at 500 ppm (johnson grass [17]) was 75%.
With `Cc1cc(C)n2nc(S(=O)(=O)Nc3c(C)ccc(Cl)c3C)nc2n1` [Compound 65] the plant injury at 280.212 g/ha (soybean [18]) was 100%, the pest or weed control at 280.212 g/ha (jimsonweed [19]) was 90% and the plant injury at 280.212 g/ha (cotton [20]) was 0%. The pest or weed control at 280.212 g/ha (velvetleaf [21]) was 20%, the pest or weed control at 280.212 g/ha (wild oats [22]) was 0% and the pest or weed control at 280.212 g/ha (yellow nutsedge [23]) was 95%. The “% NH4-N Remaining After 2 Weeks Incubation” value ([1]; 0.06 ppm) was 5%, the “% NH4-N Remaining After 2 Weeks Incubation” value ([1]; 0.25 ppm) was 52% and the “% NH4-N Remaining After 2 Weeks Incubation” value ([1]; 1 ppm) was 65%. For the same compound, the “% NH4-N Remaining After 2 Weeks Incubation” value ([1]; 4 ppm) was 85%, the plant injury at 280.212 g/ha (corn [24]) was 0% and the minimal effective concentration [2] was 12 µg/mL. For the same compound, the plant injury at 280.212 g/ha (rape [25]) was 20%, the pest or weed control at 280.212 g/ha (barnyardgrass [26]) was 70% and the pest or weed control at 280.212 g/ha (yellow foxtail [27]) was 95%. The pest or weed control at 280.212 g/ha (annual morning glory [28]) was 50%, the plant injury at 280.212 g/ha (rice [29]) was 30% and the plant injury at 280.212 g/ha (wheat [30]) was 0%. It also gave a pest or weed control at 280.212 g/ha (johnson grass [31]) of 95% and a plant injury at 280.212 g/ha (sugar beet [32]) of 100%.
